Assay results as given in patent publication US8431593B2, “Heteroaryl amide derivatives” (H. Lundbeck A/S, priority 2006, dated 2013).
Like-named read-outs stand apart in the source and are kept apart here. Each block holds one molecule with its values, some of them ahead of it.

Biological target: T1, P2X7 receptor (Homo sapiens, UniProt Q99572)
T1 construct: host or cells: SH-SY5Y
T1 sequence (Q99572 1-595): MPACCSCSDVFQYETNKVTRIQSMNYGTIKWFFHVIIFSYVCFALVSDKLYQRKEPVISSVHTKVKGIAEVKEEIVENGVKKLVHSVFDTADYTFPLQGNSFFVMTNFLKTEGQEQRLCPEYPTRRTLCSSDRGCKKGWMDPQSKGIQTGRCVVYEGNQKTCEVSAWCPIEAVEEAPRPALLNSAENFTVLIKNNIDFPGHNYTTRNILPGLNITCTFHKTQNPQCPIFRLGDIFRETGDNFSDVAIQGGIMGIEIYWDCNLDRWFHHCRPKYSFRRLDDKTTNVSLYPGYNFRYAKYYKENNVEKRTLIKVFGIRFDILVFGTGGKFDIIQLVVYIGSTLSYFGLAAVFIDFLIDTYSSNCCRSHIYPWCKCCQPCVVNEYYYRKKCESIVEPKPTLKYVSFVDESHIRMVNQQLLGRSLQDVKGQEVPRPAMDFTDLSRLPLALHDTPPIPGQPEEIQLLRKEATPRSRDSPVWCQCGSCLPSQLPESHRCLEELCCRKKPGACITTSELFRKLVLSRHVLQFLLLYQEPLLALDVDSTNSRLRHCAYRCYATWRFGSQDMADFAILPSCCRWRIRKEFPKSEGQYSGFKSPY
Assay: P2X7 calcium mobilization assay, high throughput, antagonist activity (Example 4A)
Type: cell-based
How it was run: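 100,000 cells/well, plated day -1. Dye 1 h → rinse → compound 1 h, RT → FLIPR^TETRA Ca2+ mobilization. Max RFU minus mean negative control (no agonist); mean agonist-well max as positive control.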

[1] = 50% decrease in the fluorescence response of cells exposed to 80 μM of 2′(3′)-O-(4-benzoyl-benzoyl)adenosine 5′-triphosphate, determined as in Example 4A, read-out: IC50
[2] = SH-SY5Y cells, 50% decrease in fluorescence response to 80 μM BzATP, read-out: IC50
[3] = fluorescence response of cells exposed to 80 μM 2′(3′)-O-(4-benzoyl-benzoyl)adenosine 5′-triphosphate, Example 4A, read-out: IC50
[4] = 50% decrease in the fluorescence response of cells exposed to 80 μM 2′(3′)-O-(4-benzoyl-benzoyl)adenosine 5′-triphosphate, Example 4A, read-out: IC50
[5] = 50% decrease in the fluorescence response of cells exposed to 80 μM of 2′(3′)-O-(4-benzoyl-benzoyl)adenosine 5′-triphosphate, Example 4A, read-out: IC50

SMILES: N[C@@H]1CCN(C(=O)c2cn3c(C(=O)NCC45CC6CC(CC(C6)C4)C5)cccc3n2)C1 [Compound 129, N-(adamantan-1-ylmethyl)-2-{[(3R)-3-aminopyrrolidin-1-yl]carbonyl}imidazo[1,2-a]pyridine-5-carboxamide]
IC50 [2]: < 2 µM

SMILES: O=C(Cc1cn2c(C(=O)NCC34CC5CC(CC(C5)C3)C4)cccc2n1)NCC1CCCO1 (stereo not drawn) [Compound 157, N-(adamantan-1-ylmethyl)-2-{2-oxo-2-[(tetrahydrofuran-2-ylmethyl)amino]ethyl}imi-dazo[1,2-a]pyridine-5-carboxamide]
IC50: < 2 µM

SMILES: Cc1cc(-c2cn3c(C(=O)NCC45CC6CC(CC(C6)C4)C5)cccc3n2)nn1CCO [Compound 340, N-(adamantan-1-ylmethyl)-2-[1-(2-hydroxyethyl)-5-methyl-1H-pyrazol-3-yl]imidazo[1,2-a]pyridine-5-carboxamide]
IC50 [3]: < 2 µM

SMILES: CC(C)CC(CNC(=O)c1cccc2nc(CC(=O)N3CCCC(C(F)(F)F)C3)cn12)c1ccccc1 (stereo not drawn) [Compound 238, N-(4-methyl-2-phenylpentyl)-2-{2-oxo-2-[3-(trifluoromethyl)piperidin-1-yl]ethyl}imidazo [1,2-a]pyridine-5-carboxamide]
IC50 [3]: < 2 µM

SMILES: CCOC(=O)C1CCCN(Cc2cn3c(C(=O)NCC45CC6CC(CC(C6)C4)C5)cccc3n2)C1 (stereo not drawn) [Compound 189, ethyl 1-({5-[(adamantan-1-ylmethyl)carbamoyl]imi-dazo[1,2-a]pyridin-2-yl}methyl)piperidine-3-carboxylate]
IC50: < 2 µM

SMILES: CN(C)C1CCCN(C(=O)Cc2cn3c(C(=O)NCC4(c5ccc(Cl)cc5)CCOCC4)cccc3n2)C1 (stereo not drawn) [Compound 899, N-{[4-(4-chlorophenyl)tetrahydro-2H-pyran-4-yl]methyl}-2-{2-[3-(dimethylamino)piperidin-1-yl]-2-oxoethyl} imidazo[1,2-a] pyridine-5-carboxamide]
IC50 [1]: < 2 µM

SMILES: COCCC1CCN(C(=O)c2cn3c(C(=O)NCC45CC6CC(CC(C6)C4)C5)cccc3n2)CC1 [Compound 88, N-(adamantan-1-ylmethyl)-2-{[4-(2-methoxyethyl)piperidin-1-yl]carbonyl}imidazo[1,2-a]pyridine-5-carboxamide]
IC50: < 2 µM

SMILES: CCCC(=O)NC1CCN(C(=O)c2cn3c(NC(=O)CC45CC6CC(CC(C6)C4)C5)cccc3n2)CC1 [Compound 409, N-[1-({5-[(adamantan-1-ylacetyl)amino]imidazo[1,2-a]pyridin-2-yl}carbonyl)piperidin-4-yl]butanamide]
IC50 [3]: < 2 µM

SMILES: CCOC(=O)CN(C)Cc1cn2c(C(=O)NCC34CC5CC(CC(C5)C3)C4)cccc2n1 [Compound 341, ethyl N-({5-[(adamantan-1-ylmethyl)carbamoyl]imidazo[1,2-a]pyridin-2-yl}methyl)-N-methylglycinate]
IC50 [3]: < 2 µM

SMILES: O=C(NCC12CC3CC(CC(C3)C1)C2)c1cccc2nc(CSc3ncc[nH]3)cn12 [Compound 542, N-(adamantan-1-ylmethyl)-2-[(1H-imidazol-2-ylthio)methyl] imidazo [1,2-a]pyridine-5-carboxamide]
IC50 [4]: < 2 µM

SMILES: CN(C)CC(C)(C)CNC(=O)c1cn2c(C(=O)NCC34CC5CC(CC(C5)C3)C4)cccc2n1 [Compound 644, 5-N-(adamantan-1-ylmethyl)-2-N-[3-(dimethylamino)-2,2-dimethylpropyl] imidazo[1,2-a] pyridine-2,5-dicarboxamide]
IC50 [5]: < 2 µM

The remaining lines, values ahead:

IC50 [1]: < 2 µM
SMILES: O=C(NCC12CC3CC(CC(C3)C1)C2)c1cccc2nc(Cn3nnnc3N3CCOCC3)cn12 [Compound 828, N-(adamantan-1-ylmethyl)-2-[(5-morpholin-4-yl-1H-tetrazol-1-yl)methyl]imidazo [1,2-a]pyridine-5-carboxamide]

IC50 [1]: < 2 µM
SMILES: CC(C)CC(CNC(=O)c1cccc2nc(Cn3ccc(N)n3)cn12)c1ccc(Cl)cc1 (stereo not drawn) [Compound 834, 2-[(3-amino-1H-pyrazol-1-yl)methyl]-N-[2-(4-chlorophenyl)-4-methylpentyl] imidazo [1,2-a]pyridine-5-carboxamide]

IC50 [3]: < 2 µM
SMILES: Cc1cc(C(=O)O)nn1Cc1cn2c(C(=O)NCC34CC5CC(CC(C5)C3)C4)cccc2n1 [Compound 276, 1-({5-[(adamantan-1-ylmethyl)carbamoyl]imidazo[1,2-a]pyridin-2-yl}methyl)-5-methyl-1H-pyrazole-3-carboxylic acid]

IC50 [4]: < 2 µM
SMILES: CCN(Cc1cn2c(C(=O)NCC34CC5CC(CC(C5)C3)C4)cccc2n1)C(=O)C(=O)O [Compound 546, [({5-[(adamantan-1-ylmethyl)carbamoyl]imidazo[1,2-a]pyridin-2-yl}methyl)(ethyl)amino] (oxo)acetic acid]

IC50 [4]: < 2 µM
SMILES: C[C@H]1CN(C(=O)Cc2cn3c(C(=O)NC[C@@H]4CC[C@@H]5C[C@H]4C5(C)C)cccc3n2)CCN1 [Compound 563, N-{[(1R,2R,5R)-6,6-dimethylbicyclo[3.1.1]hept-2-yl]methyl}-2-{2-[(3S)-3-methylpiperazin-1-yl]-2-oxoethyl}imidazo[1,2-a]pyridine-5-carboxamide]

IC50 [3]: < 2 µM
SMILES: C[C@H](N)C(=O)N[C@@H]1CCN(Cc2cn3c(C(=O)NCC45CC6CC(CC(C6)C4)C5)cccc3n2)C1 [Compound 277, N-(adamantan-1-ylmethyl)-2-{[(3R)-3-(L-alanylamino)pyrrolidin-1-yl]methyl}imidazo[1,2-a]pyridine-5-carboxamide]

IC50 [5]: < 2 µM
SMILES: O=C(NCCc1ccncc1)c1cn2c(C(=O)NCC34CC5CC(CC(C5)C3)C4)cccc2n1 [Compound 660, 5-N-(adamantan-1-ylmethyl)-2-N-(2-pyridin-4-ylethyl)imidazo[1,2-a]pyridine-2,5-dicarboxamide]

IC50 [5]: < 2 µM
SMILES: CN(C)CCCN(C(=O)c1cn2c(C(=O)NCC34CC5CC(CC(C5)C3)C4)cccc2n1)C1CCNCC1(C)C (stereo not drawn) [Compound 621, 5-N-(adamantan-1-ylmethyl)-2-N-[3-(dimethylamino)propyl]-2-N-(3,3-dimethylpiperidin-4-yl)imidazo[1,2-a]pyridine-2,5-dicarboxamide]

IC50 (P2X7 calcium mobilization, Example 4A, 50% decrease in the fluorescence response of cells exposed to 80 μM of (2′(3′)-O-(4-benzoyl-benzoyl)adenosine 5′-triphosephate), read-out: IC50): < 2 µM
SMILES: O=C(NCC1(c2ccc(C(F)(F)F)cc2)CCCCC1)c1cccc2nc(C(F)(F)F)cn12 [Compound 1018, 2-(trifluoromethyl)-N-({1-[4-(trifluoromethyl)phenyl]cyclohexyl}methyl) imidazo [1,2-a]pyridine-5-carboxamide]

IC50 [4]: < 2 µM
SMILES: CC(C)[C@@H]1CNCCN1C(=O)c1cn2c(C(=O)NCC34CC5CC(CC(C5)C3)C4)cccc2n1 [Compound 613, N-(adamantan-1-ylmethyl)-2-{[(2R)-2-isopropylpiperazin-1-yl]carbonyl}imidazo[1,2-a]pyridine-5-carboxamido]

IC50 [1]: < 2 µM
SMILES: COc1ccc(C2(CNC(=O)c3cccc4nc(CC(Cc5ccccc5)C(=O)O)cn34)CCCCC2)cc1 (stereo not drawn) [Compound 1014, 2-benzyl-3-[5-({[1-(4-methoxyphenyl)cyclohexyl]methyl}carbamoyl)imidazo[1,2-a]pyridin-2-yl]propanoic acid]

IC50 [4]: < 2 µM
SMILES: CC(C)[C@H]1CN(C(=O)c2cn3c(C(=O)NCC45CC6CC(CC(C6)C4)C5)cccc3n2)CCN1 [Compound 615, N-(adamantan-1-ylmethyl)-2-{[(3S)-3-isopropylpiperazin-1-yl]carbonyl}imidazo[1,2-a]pyridine-5-carboxamide]

IC50 [2]: < 2 µM
SMILES: COC1CCCN(C(=O)c2cn3c(C(=O)NCC45CC6CC(CC(C6)C4)C5)cccc3n2)C1 (stereo not drawn) [Compound 100, N-(adamantan-1-ylmethyl)-2-[(3-methoxypiperidin-1-yl)carbonyl]imidazo[1,2-a]pyridine-5-carboxamide]
